Square brackets hold non-standard residues; d marks the D form. Peptide text beside a SMILES is read from it. Phe(ol) = N[C@H](CO)Cc1ccccc1; Leu(ol) = CC(C)C[C@H](N)CO; dIva = CC[C@@](C)(N)C(=O)O; Aib = CC(C)(N)C(=O)O
Experiments:
[1] = tested on: digestive vacuole of functionally isolated 3D7 trophozoites; experiment: FITC-dextran measurements of DV pH and membrane integrity; on DV Alkylization: key: -: A '–' indicates a negative finding; a single '+' indicates a positive finding; a double '++' indicates a strong positive finding; format: cell-based, P. falciparum; settings: for DV Alkylization: Figure 7A summary; for localization of membrane impermeable dye FITC-dextran (DV membrane leakage): microscopic analysis after 2 h
Experimental: Preloading of 3D7 parasites with FITC-dextran was done as outlined in Saliba et al.[68] In summary, 2.25 mL of pre-warmed lysis buffer (5 mM HEPES, 11 mM glucose, 2 mM MgCl2, 2 mM ATP, and 110 μM FITC-dextran, pH 7.4) was added to 1 mL of packed RBCs and incubated at 30°C for 10 min. After, 2.25 mL of resealing buffer (280 mM NaCl, 40 mM KCl, 11 mM glucose, and 1 mM HEPES, pH 7.4) was added and cells were pelleted at 1,200 x g for 5 min then washed 3 x in RPMI. FITC-dextran loaded RBCs were then resuspended with 1 mL of synchronous trophozoite stage parasites (10–20%) parasitemia, at 4% hematocrit. Cultures were maintained in 50 mL for a minimum of 2 life cycles, until parasitemia reached >15%.
For assay use, trophozoite stage parasites were functionally isolated as described by van Schalkwyk et al. and Kirk et al. with some modifications.[69]^,[70] Parasites were resuspended in warm media with 0.05% saponin then centrifuged immediately at 2,060 x g for 10 min. Cells were washed in RPMI media 3 x then resuspended in HEPES buffered saline (100 mM KCl, 30 mM NaCl, 2 mM MgCl2, and 5 mM HEPES, pH 7.3) at 5 x 10^6 cells/mL. […] Samples were collected at 0.5, 1, and 2 h for flow cytometry using a CytoFLEX S (Beckman Coulter, Brea, CA), excitation 488 nm, emissions 530 and 585 nm. Gating was performed in FlowJo Version 10 using FITC-dextran loaded and unloaded controls. The ratio (Rgy) of the fluorescent intensity values was then graphed using Graph Pad Prism Version 9. For microscopic analysis, samples were collected after 2 h of treatment and imaged on a Leica TCS SP5 II confocal microscope (Leica Microsystems, Wetzlar, DE.) at excitation 488, emission 520 nm with a 30 nm bandpass filter, then processed with LAS-X software. Significance determined using a one-way ANOVA multiple comparisons test in GraphPad Prism Version 9.0.

[2] = tested on: P. falciparum asexual blood stage parasites grown in 10% human serum; experiment: Antiplasmodial activity with serum media; format: cell-based; settings: RPMI with 10% human serum, maintained minimum 2 weeks; mean ± SEM from 3 biological replicates
Experimental: Asexual blood stage parasites grown in the Chakrabarti laboratory were cultured based on a protocol by Trager and Jensen[57] with some modifications.[35] […] For comparison screening using serum vs Albumax II, culture media was changed from RPMI with 0.5% Albumax II to RPMI with 10% human serum and maintained for a minimum of 2 weeks prior to assay use.
Inhibitor EC50 determination in 3D7 and Dd2 was performed as discussed in,[35] based on established protocols.[60] Assays utilized asynchronous culture at 1% parasitemia, 1% hematocrit. Culture was incubated with compound dilutions for 72 h followed by freezing at −80°C to promote lysis, then thawing and incubation for 45 min–1 h with 1× SYBR Green I in a lysis buffer (20 mM Tris-HCL, 0.08% saponin, 5 mM EDTA, and 0.8% Triton X-100). Fluorescence was read 485 nm excitation, 530 nm emission on a Synergy Neo2 multimode reader (BioTek Winsooki, VT) and EC50 curves were generated using CDD Vault (https://www.collaborativedrug.com/).

[3] = tested on: HepG2 cells; experiment: HepG2 cytotoxicity assay (MTS); format: cell-based, H. sapiens; settings: for EC50: 48 h, MTS, absorbance 490 nm, highest concentration 25 μM, mean ± SEM, biological triplicate; for cytotoxicity in HepG2: highest concentration tested 25 μM
Experimental: HepG2 cells are grown at 37°C in DMEM with 10% FBS, 1% Antibiotic/Antimycotic, 0.3% NaHCO3, 5 mM HEPES pH 7.4, and 2 mM L-glutamine as needed in an atmosphere containing 5% CO2.
The cytotoxicity assay was performed as reported previously.[35] HepG2 cells were seeded at ∼2,250 cells per well 24 h prior to compound addition. Cells were then incubated for an additional 48 h prior to the addition of MTS and absorbance reading at 490 nm on Synergy Neo2 multimode reader (BioTek, Winsooki, VT). Cytotoxicity EC50 values were determined using CDD Vault (https://www.collaborativedrug.com/).

[4] = tested on: PfMDR1 cKD parasite line; experiment: MDR1 compound susceptibility assay (Renilla luciferase); on pfMDR1 cKD Sensitivity: key: -: A '–' indicates a negative finding; a single '+' indicates a positive finding; a double '++' indicates a strong positive finding; format: cell-based, P. falciparum; settings: for pfMDR1 cKD Sensitivity: Figure 7A summary / graphical abstract; for shift in sensitivity upon PfMDR1 knockdown: with (0.5 μM) vs without aTc, 72 h, luminescence
Text: A conditional knockdown parasite line was generated for the P. falciparum multi-drug resistance 1 (MDR1; PF3D7_0523000) following previously described procedures.[84]^,[85] The native PfMDR1 locus was engineered using CRISPR/SpCas9 to afford transcriptional fusion of 10 tandem TetR-DOZI binding aptamers in the 3′UTR for anhydrotetracycline (aTc)-dependent regulation of PfMDR1 expression.
As a control cell line, a parasite line expressing an aptamer-regulatable fluorescent protein integrated in the cg6 locus[84] was assayed in parallel. Synchronous ring-stage parasites in the presence (0.5 μM) and absence of aTc were dispensed into 384-well polystyrene microplates (Corning®), and compounds added using the Janus® platform (PerkinElmer). DMSO- and DHA (0.5 μM) served as normalization controls for maximal and minimum signal. Luminescence was measured after 72 h and IC50 values were obtained from normalized dose-response curves using GraphPad Prism Version 8.

[5] = tested on: P. berghei liver stage parasites in HepG2 cells; experiment: High content imaging P. berghei liver stage assay (luciferase 48 HPI, MSP1/AMA1 72 HPI, HepG2 area); format: cell-based; settings: for Liver stage inhibition: Figure 7A summary
Experimental: HepG2 cells infected with luciferase-expressing P. berghei sporozoites were seeded onto compound-loaded 384-well plates 2 hours after sporozoite addition. A live luciferase readout at 48 HPI[62] quantifies compound activity against parasite biomass, while HCI of MSP1 and AMA1 expression at 72 HPI quantifies effects on liver stage maturation and hepatic merozoite formation. Compound effects on hepatocytes are assessed based on HepG2 area occupied in the 72 HPI HCI assay. All data are normalized to in-plate DMSO controls.

[6] = tested on: red blood cell (RBC); experiment: Percent hemolysis determination; format: cell-based, human; settings: for Hemolytic Potential: Figure 7A summary; for hemolysis at 25 μM: RBCs in PBS, 1% hematocrit, 1 h, 37°C, absorbance 550 nm, 0.01% saponin control, biological triplicate; on Hemolytic Potential: key: -: A '–' indicates a negative finding; a single '+' indicates a positive finding; a double '++' indicates a strong positive finding
Experimental: Hemolysis assay performed as outlined in Duvall et al. with some modifications.[63] Whole blood was first washed and resuspended in PBS to isolate RBCs. Compound was then added in serial dilutions to PBS with 1% hematocrit, with vehicle or 0.01% saponin used as controls. Plates were incubated for 1 h at 37°C then centrifuged for 10 min at 900 x g. Supernatant was then transferred to a clear plate and absorbance was read at 550 nm. Extended incubation with compound (up to 3 days) was performed during assay optimization, with no changes noted in percent hemolysis.

[7] = 5 x EC50, isolated trophozoites

SMILES	pH dependent fluorescence ratio (FI585/FI530), DV pH, 0.5, 1 or 2 h [1, 7]	DV Alkylization [1]	localization of membrane impermeable dye FITC-dextran (DV membrane leakage) ([1]; 5 x EC50)	EC50 [2] [µM]	EC50 [3] [µM]	cytotoxicity in HepG2 [3]	pfMDR1 cKD Sensitivity [4]	shift in sensitivity upon PfMDR1 knockdown [4]	Liver stage inhibition [5]	Hemolytic Potential [6]	pH dependent fluorescence ratio (FI585/FI530), DV pH, after 0.5 h [1, 7]	hemolysis at 25 μM [6] [%]	luciferase inhibition at 48 HPI (liver stage HCI) ([5]; tested at 5 and 0.5 μM)	pH dependent fluorescence ratio (FI585/FI530), DV pH, after 1 h [1, 7]	pH dependent fluorescence ratio (FI585/FI530), DV pH, after 2 h [1, 7]
CC[C@H](C)[C@H](NC(=O)[C@H](C)NC(=O)[C@@H]1CCCN1C(=O)C(C)(C)NC(=O)[C@H](CC(C)C)NC(=O)[C@H](CCC(N)=O)NC(=O)[C@@](C)(CC)NC(C)=O)C(=O)NC(C)(C)C(=O)N1CCC[C@H]1C(=O)N[C@](C)(CC)C(=O)N[C@@H](CC(C)C)C(=O)NC(C)(C)C(=O)N1CCC[C@H]1C(=O)N[C@H](CO)CC(C)C [HZ NPDG-H, harzianin NPDG H] (Ac-[dIva]QL[Aib]PAI[Aib]P[dIva]L[Aib]P[Leu(ol)])	No significant (p > 0.05) change	-	not seen	0.69 ± 0.09	> 25	no cytotoxicity	+	~6 fold	Maturation only	-					
CC(=O)NC(C)(C)C(=O)N1CCC[C@H]1C(=O)NC(C)(C)C(=O)N[C@@H](C)C(=O)NC(C)(C)C(=O)N[C@@H](C)C(=O)N[C@@H](CCC(N)=O)C(=O)NC(C)(C)C(=O)N[C@H](C(=O)NC(C)(C)C(=O)NCC(=O)N[C@@H](CC(C)C)C(=O)NC(C)(C)C(=O)N1CCC[C@H]1C(=O)N[C@H](C(=O)NC(C)(C)C(=O)NC(C)(C)C(=O)N[C@@H](CCC(=O)O)C(=O)N[C@@H](CCC(N)=O)C(=O)N[C@H](CO)Cc1ccccc1)C(C)C)C(C)C [Alamethicin, reference compound] (Ac-[Aib]P[Aib]A[Aib]AQ[Aib]V[Aib]GL[Aib]PV[Aib][Aib]EQ[Phe(ol)]; N-terminus assumed)			no longer showed full colocalization of the dye within the DV		6.6 ± 0.1	Minor cytotoxicity		no differential sensitivity			Rapid alkalization	73			
CC[C@@](C)(NC(=O)C(C)(C)NC(=O)[C@H](CC(C)C)NC(=O)[C@@H]1CCCN1C(=O)C(C)(C)NC(=O)[C@H](CC(C)C)NC(=O)CNC(=O)C(C)(C)NC(=O)[C@@H](NC(=O)C(C)(C)NC(=O)[C@H](CCC(N)=O)NC(=O)C(C)(C)NC(=O)C(C)(C)NC(=O)[C@H](C)NC(=O)CNC(=O)C(C)(C)NC(C)=O)C(C)C)C(=O)N[C@@H](CCC(N)=O)C(=O)N[C@H](CO)CC(C)C [TC HA-II, trichorzin HA II] (Ac-[Aib]GA[Aib][Aib]Q[Aib]V[Aib]GL[Aib]PL[Aib][dIva]Q[Leu(ol)])		++	no longer showed full colocalization of the dye within the DV	2.2 ± 0.27	13 ± 2	Minor cytotoxicity		no differential sensitivity	Maturation and replication	+		53	showed luciferase inhibition		
CC[C@H](C)[C@H](NC(=O)[C@H](CC(C)C)NC(=O)[C@H](CCC(N)=O)NC(=O)[C@@](C)(CC)NC(C)=O)C(=O)NC(C)(C)C(=O)N1CCC[C@H]1C(=O)N[C@](C)(CC)C(=O)N[C@@H](CC(C)C)C(=O)NC(C)(C)C(=O)N1CCC[C@H]1C(=O)N[C@H](CO)CC(C)C [HZ NPDG-I, harzianin NPDG I] (Ac-[dIva]QLI[Aib]P[dIva]L[Aib]P[Leu(ol)])		+	no longer showed full colocalization of the dye within the DV	0.26 ± 0.03	> 25	no cytotoxicity	++	43 fold	Maturation only	-				moderate increase	significant (p = 0.0015) increase

Reference: PMC10923054, “Antiplasmodial peptaibols act through membrane directed mechanisms” (Cell Chemical Biology, 2024)
